The results in this text go back to patent publication US20240270762A1, “PENICILLIN-BINDING PROTEIN INHIBITORS” (priority 2021, published 2024).

For assay [1], the target named is T1, PBP3 from Acinetobacter baumannii (ATCC 19606) (Acinetobacter baumannii, UniProt A0ABX6CK25).
T1 sequence (A0ABX6CK25 64-610): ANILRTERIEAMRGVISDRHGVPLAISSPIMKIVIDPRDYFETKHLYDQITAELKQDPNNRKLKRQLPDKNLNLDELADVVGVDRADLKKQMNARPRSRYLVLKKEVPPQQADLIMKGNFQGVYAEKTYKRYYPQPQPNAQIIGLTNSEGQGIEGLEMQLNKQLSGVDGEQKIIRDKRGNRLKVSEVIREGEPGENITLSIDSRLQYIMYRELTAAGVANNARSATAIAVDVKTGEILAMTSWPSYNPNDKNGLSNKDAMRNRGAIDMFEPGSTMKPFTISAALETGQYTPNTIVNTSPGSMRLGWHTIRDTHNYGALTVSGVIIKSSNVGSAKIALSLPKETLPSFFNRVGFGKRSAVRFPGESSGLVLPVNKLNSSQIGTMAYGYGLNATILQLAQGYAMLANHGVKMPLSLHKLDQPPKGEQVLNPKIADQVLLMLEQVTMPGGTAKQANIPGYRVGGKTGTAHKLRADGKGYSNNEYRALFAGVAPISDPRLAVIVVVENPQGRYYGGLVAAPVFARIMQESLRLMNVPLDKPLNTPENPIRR
Nature of the assay: Bocillin-FL fluorescence polarization competition binding, A. baumannii PBP3. To be noted: fluorescence polarization competition binding assay using Bocillin-FL; read-out: A. baumannii PBP3 Potency. The gist of the method: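 Purified PBP was preincubated with inhibitor (E. coli PBP3 1.5 μM, 30 min; P. aeruginosa PBP3 0.75 μM, A. baumannii PBP3 0.2 μM and PBP1a 1 μM, 15 min), then Bocillin-FL (0.1 μM; 0.05 μM for PBP1a) added and FP read up to 60 min. EC50 = 50% loss of bound probe.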
Background: Fluorescence polarisation rises when a labelled molecule tumbles more slowly, as on binding a larger partner.

The next assay deals with P. aeruginosa ATCC 27853. The experiment in a line: microbe, parasite or virus in culture. In kind it is cell-based. To be noted: Pseudomonas aeruginosa, ATCC27853, read-out: Minimum inhibitory concentration, P. aeruginosa ATCC 27853.
The subject of the next assay is A. baumannii ATCC 17978. Nature of the assay: microbe, parasite or virus in culture. To be noted: Acinetobacter baumannii, ATCC17978, read-out: Minimum inhibitory concentration (MIC), A. baumannii ATCC 17978. Format: cell-based.
The test system of the next assay is A. baumannii ATCC 19606. Nature of the assay: microbe, parasite or virus in culture. Format: cell-based. To be noted: Acinetobacter baumannii, ATCC19606, read-out: Minimum inhibitory concentration (MIC), A. baumannii ATCC 19606.
The test system of the next assay is P. aeruginosa ATCC 35151. Nature of the assay: microbe, parasite or virus in culture. Format: cell-based. To be noted: Pseudomonas aeruginosa, ATCC35151, read-out: Minimum inhibitory concentration, P. aeruginosa ATCC 35151.
The next assay has as its system P. aeruginosa CDC-0090. The experiment in a line: microbe, parasite or virus in culture. In kind it is cell-based. To be noted: Pseudomonas aeruginosa, CDC0090, read-out: Minimum inhibitory concentration, P. aeruginosa CDC-0090.
For a further assay, the system named is P. aeruginosa CDC-0095. The experiment in a line: microbe, parasite or virus in culture. To be noted: Pseudomonas aeruginosa, CDC0095, read-out: Minimum inhibitory concentration, P. aeruginosa CDC-0095. Format: cell-based.
The next assay concerns A. baumannii 1258916. Nature of the assay: microbe, parasite or virus in culture. To be noted: Acinetobacter baumannii, 1258916, read-out: Minimum inhibitory concentration (MIC), A. baumannii 1258916. In kind it is cell-based, Acinetobacter baumannii.
A further assay relates to A. baumannii CDC-0033. The experiment in a line: microbe, parasite or virus in culture. Format: cell-based. To be noted: Acinetobacter baumannii, CDC0033, read-out: Minimum inhibitory concentration (MIC), A. baumannii CDC-0033.
In assay [2] the test system is B. humptydooensis ATCC BAA-2767. The experiment in a line: microbe, parasite or virus in culture. Format: cell-based. To be noted: Burkholderia humptydooensis, ATCCBAA2767, read-out: Minimum inhibitory concentration (MIC), B. humptydooensis ATCC BAA-2767.

≈ marks a conversion by molar mass, not a printed value. Where only a bound is given, the exact number is not on record here.

Regarding `O=C(O)c1c(F)ccc2c1OB(O)[C@@H](NC(=O)C(NC(=O)N1CCN(C3CCN(C(=O)Nc4c(F)ccc(O)c4F)CC3)C(=O)C1=O)c1cc(F)c(O)c(O)c1Cl)C2` (stereo partly drawn) [Example 487, (3R)-3-(2-(2-chloro-5-fluoro-3,4-dihydroxyphenyl)-2-(4-(1-((2,6-difluoro-3-hydroxyphenyl)carbamoyl)piperidin-4-yl)-2,3-dioxopiperazine-1-carboxamido)acetamido)-7-fluoro-2-hydroxy-3,4-dihydro-2H-benzo[e][1,2]oxaborinine-8-carboxylic acid], the IC50 in [1] was under 10 µM. The MIC was under 1 µg/mL in the assay on P. aeruginosa ATCC 27853; under 1 µg/mL in the assay with A. baumannii ATCC 17978; under 1 µg/mL in the assay with A. baumannii ATCC 19606; under 1 µg/mL with P. aeruginosa ATCC 35151; 2 to 4 µg/mL (≈ 2.39 to 4.78 µM) with P. aeruginosa CDC-0090; under 1 µg/mL in the assay on P. aeruginosa CDC-0095. In addition, the results for the MIC (in the assay with A. baumannii 1258916; in the assay with A. baumannii CDC-0033; in [2]) were under 1 µg/mL, 2 to 4 µg/mL (≈ 2.39 to 4.78 µM) and 2 to 4 µg/mL (≈ 2.39 to 4.78 µM), respectively.
For the compound `O=C(O)c1c(F)ccc2c1OB(O)[C@@H](NC(=O)C(NC(=O)N1CCN(C3CCN(C(=O)Nc4cc(O)c(F)c(F)c4)CC3)C(=O)C1=O)c1cc(F)c(O)c(O)c1Cl)C2` (stereo partly drawn) [Example 488, (3R)-3-(2-(2-chloro-5-fluoro-3,4-dihydroxyphenyl)-2-(4-(1-((3,4-difluoro-5-hydroxyphenyl)carbamoyl)piperidin-4-yl)-2,3-dioxopiperazine-1-carboxamido)acetamido)-7-fluoro-2-hydroxy-3,4-dihydro-2H-benzo[e][1,2]oxaborinine-8-carboxylic acid], the IC50 in assay [1] is under 10 µM. Further, the MIC with P. aeruginosa ATCC 27853 is 2 to 4 µg/mL (≈ 2.39 to 4.78 µM); in the assay on A. baumannii ATCC 17978 it was under 1 µg/mL; in the assay with A. baumannii ATCC 19606 it was under 1 µg/mL; in the assay with P. aeruginosa ATCC 35151 it was under 1 µg/mL; with P. aeruginosa CDC-0090, under 1 µg/mL; in the assay with P. aeruginosa CDC-0095 it was 2 to 4 µg/mL (≈ 2.39 to 4.78 µM). The figures for the MIC (in the assay on A. baumannii 1258916; in the assay with A. baumannii CDC-0033; in assay [2]) were under 1 µg/mL, 2 to 4 µg/mL (≈ 2.39 to 4.78 µM) and over 128 µg/mL, respectively.
Regarding `O=C(O)c1c(F)ccc2c1OB(O)[C@@H](NC(=O)C(NC(=O)N1CCN(C3CCN(C(=O)Nc4ccc(Cl)c(O)c4F)CC3)C(=O)C1=O)c1cc(F)c(O)c(O)c1Cl)C2` (stereo partly drawn) [Example 489, (3R)-3-(2-(4-(1-((4-chloro-2-fluoro-3-hydroxyphenyl)carbamoyl)piperidin-4-yl)-2,3-dioxopiperazine-1-carboxamido)-2-(2-chloro-5-fluoro-3,4-dihydroxyphenyl)acetamido)-7-fluoro-2-hydroxy-3,4-dihydro-2H-benzo[e][1,2]oxaborinine-8-carboxylic acid], the IC50 in [1] is under 10 µM. Also, the MIC with P. aeruginosa ATCC 27853 is 2 to 4 µg/mL (≈ 2.34 to 4.69 µM); in the assay on A. baumannii ATCC 17978, under 1 µg/mL; in the assay on A. baumannii ATCC 19606, under 1 µg/mL; with P. aeruginosa ATCC 35151, under 1 µg/mL; in the assay with P. aeruginosa CDC-0090, 2 to 4 µg/mL (≈ 2.34 to 4.69 µM); with P. aeruginosa CDC-0095 it was under 1 µg/mL. Besides, the MIC in the assay with A. baumannii 1258916 is under 1 µg/mL; in the assay with A. baumannii CDC-0033, 2 to 4 µg/mL (≈ 2.34 to 4.69 µM); in [2], 32 to 64 µg/mL (≈ 37.5 to 75 µM).
In the case of `O=C(O)c1c(F)ccc2c1OB(O)[C@@H](NC(=O)C(NC(=O)N1CCN(C3CCN(C(=O)Nc4cc(O)c(F)cc4Cl)CC3)C(=O)C1=O)c1cc(F)c(O)c(O)c1Cl)C2` (stereo partly drawn) [Example 490, (3R)-3-(2-(4-(1-((2-chloro-4-fluoro-5-hydroxyphenyl)carbamoyl)piperidin-4-yl)-2,3-dioxopiperazine-1-carboxamido)-2-(2-chloro-5-fluoro-3,4-dihydroxyphenyl)acetamido)-7-fluoro-2-hydroxy-3,4-dihydro-2H-benzo[e][1,2]oxaborinine-8-carboxylic acid], in [1], the IC50 is under 10 µM. For the same compound, the MIC with P. aeruginosa ATCC 27853 was 2 to 4 µg/mL (≈ 2.34 to 4.69 µM); in the assay on A. baumannii ATCC 17978, under 1 µg/mL; in the assay on A. baumannii ATCC 19606, under 1 µg/mL; in the assay on P. aeruginosa ATCC 35151 it was under 1 µg/mL; in the assay with P. aeruginosa CDC-0090 it was 2 to 4 µg/mL (≈ 2.34 to 4.69 µM); in the assay with P. aeruginosa CDC-0095 it was 2 to 4 µg/mL (≈ 2.34 to 4.69 µM). Further, the results for the MIC (in the assay with A. baumannii 1258916; with A. baumannii CDC-0033; in assay [2]) were 2 to 4 µg/mL (≈ 2.34 to 4.69 µM), 2 to 4 µg/mL (≈ 2.34 to 4.69 µM) and over 128 µg/mL, respectively.
